Reference: ChEMBL document CHEMBL1201862, “PubChem BioAssay data set” (2004)
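Step 1: Grow cells in 96-well plates. Step 2: Expose to compound for 48 hours at 5 concentrations. Step 3: Interpolate endpoints linearly; if unreached, use highest concentration. At the GI50, growth is halved.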 Active and inactive are the calls of the source. Cut-off read from the data, not from the text of the source: active = GI50 up to about 1.1 µM and inactive = higher.

Columns and labels:
Experiment in all cases: DTP human tumour cell line panel, 48 h
786-0 = system: 786-0
A498 = system: A498
A549 = system: A549
ACHN = system: ACHN
CAKI-1 = system: CAKI-1
CCRF-CEM = system: CCRF-CEM
DLD-1 = system: DLD-1
DMS-114 = system: DMS-114
DMS-273 = system: DMS-273
EKVX = system: EKVX
HCC 2998 = system: HCC 2998
HCT-116 = system: HCT-116
HCT-15 = system: HCT-15
HL-60 = system: HL-60
HOP-18 = system: HOP-18
HOP-62 = system: HOP-62
HOP-92 = system: HOP-92
HT-29 = system: HT-29
IGROV-1 = system: IGROV-1
K562 = system: K562
KM-20L2 = system: KM-20L2
KM12 = system: KM12
LOX IMVI = system: LOX IMVI
LXFL 529 = system: LXFL 529
M14 = system: M14
M19-MEL = system: M19-MEL
MOLT-4 = system: MOLT-4
Malme-3M = system: Malme-3M
NCI-H226 = system: NCI-H226
NCI-H23 = system: NCI-H23
NCI-H460 = system: NCI-H460
OVCAR-3 = system: OVCAR-3
OVCAR-4 = system: OVCAR-4
OVCAR-5 = system: OVCAR-5
OVCAR-8 = system: OVCAR-8
RPMI-8226 = system: RPMI-8226
RXF 393 = system: RXF 393
SF-268 = system: SF-268
SF-295 = system: SF-295
SF-539 = system: SF-539
SK-MEL-28 = system: SK-MEL-28
SK-MEL-2 = system: SK-MEL-2
SK-MEL-5 = system: SK-MEL-5
SN12C = system: SN12C
SNB-19 = system: SNB-19
SNB-75 = system: SNB-75
SNB-78 = system: SNB-78
SR = system: SR
SW-620 = system: SW-620
TK-10 = system: TK-10
UACC-257 = system: UACC-257
UACC-62 = system: UACC-62
UO-31 = system: UO-31
XF498 = system: XF498
COLO 205 = system: COLO 205
NCI-H522 = system: NCI-H522
SK-OV-3 = system: SK-OV-3
U-251 = system: U-251

SMILES: N#Cc1ccc(/C=N\N2C(=O)c3ccccc3C2=O)cc1
- GI50 (786-0): > 100 µM (inactive)
- GI50 (A498): > 100 µM (inactive)
- GI50 (A549): > 100 µM (inactive)
- GI50 (ACHN): > 100 µM (inactive)
- GI50 (CAKI-1): > 100 µM (inactive)
- GI50 (CCRF-CEM): > 100 µM (inactive)
- GI50 (DLD-1): > 100 µM (inactive)
- GI50 (DMS-114): > 100 µM (inactive)
- GI50 (DMS-273): > 100 µM (inactive)
- GI50 (EKVX): > 100 µM (inactive)
- GI50 (HCC 2998): > 100 µM (inactive)
- GI50 (HCT-116): > 100 µM (inactive)
- GI50 (HCT-15): > 100 µM
- GI50 (HL-60): > 100 µM (inactive)
- GI50 (HOP-18): > 100 µM (inactive)
- GI50 (HOP-62): > 100 µM (inactive)
- GI50 (HOP-92): > 100 µM (inactive)
- GI50 (HT-29): > 100 µM (inactive)
- GI50 (IGROV-1): > 100 µM (inactive)
- GI50 (K562): > 100 µM (inactive)
- GI50 (KM-20L2): > 100 µM (inactive)
- GI50 (KM12): > 100 µM (inactive)
- GI50 (LOX IMVI): > 100 µM (inactive)
- GI50 (LXFL 529): > 100 µM (inactive)
- GI50 (M14): > 100 µM (inactive)
- GI50 (M19-MEL): > 100 µM (inactive)
- GI50 (MOLT-4): > 100 µM (inactive)
- GI50 (Malme-3M): > 100 µM (inactive)
- GI50 (NCI-H226): > 100 µM (inactive)
- GI50 (NCI-H23): > 100 µM (inactive)
- GI50 (NCI-H460): > 100 µM (inactive)
- GI50 (OVCAR-3): > 100 µM (inactive)
- GI50 (OVCAR-4): > 100 µM (inactive)
- GI50 (OVCAR-5): > 100 µM (inactive)
- GI50 (OVCAR-8): > 100 µM (inactive)
- GI50 (RPMI-8226): > 100 µM (inactive)
- GI50 (RXF 393): > 100 µM (inactive)
- GI50 (SF-268): > 100 µM (inactive)
- GI50 (SF-295): > 100 µM (inactive)
- GI50 (SF-539): > 100 µM (inactive)
- GI50 (SK-MEL-28): > 100 µM (inactive)
- GI50 (SK-MEL-2): > 100 µM (inactive)
- GI50 (SK-MEL-5): > 100 µM (inactive)
- GI50 (SN12C): > 100 µM (inactive)
- GI50 (SNB-19): > 100 µM (inactive)
- GI50 (SNB-75): > 100 µM (inactive)
- GI50 (SNB-78): > 100 µM (inactive)
- GI50 (SR): > 100 µM (inactive)
- GI50 (SW-620): > 100 µM (inactive)
- GI50 (TK-10): > 100 µM (inactive)
- GI50 (UACC-257): > 100 µM (inactive)
- GI50 (UACC-62): > 100 µM (inactive)
- GI50 (UO-31): > 100 µM (inactive)
- GI50 (XF498): > 100 µM (inactive)

SMILES: Cc1ccc2ccc(-c3ccccc3)c3c2c1C(=O)c1ccccc1C3=O
- GI50 (786-0): 36.5 µM (inactive)
- GI50 (A498): 74 µM (inactive)
- GI50 (A549): > 100 µM (inactive)
- GI50 (ACHN): 58.5 µM (inactive)
- GI50 (CCRF-CEM): > 100 µM (inactive)
- GI50 (COLO 205): > 100 µM (inactive)
- GI50 (DLD-1): > 100 µM (inactive)
- GI50 (DMS-114): > 100 µM (inactive)
- GI50 (DMS-273): 53.8 µM (inactive)
- GI50 (EKVX): > 100 µM (inactive)
- GI50 (HCC 2998): > 100 µM (inactive)
- GI50 (HCT-116): > 100 µM (inactive)
- GI50 (HL-60): > 100 µM (inactive)
- GI50 (HOP-18): 54.6 µM (inactive)
- GI50 (HOP-62): 54.3 µM (inactive)
- GI50 (HOP-92): 26.1 µM (inactive)
- GI50 (HT-29): > 100 µM (inactive)
- GI50 (IGROV-1): > 100 µM (inactive)
- GI50 (K562): > 100 µM (inactive)
- GI50 (KM-20L2): > 100 µM (inactive)
- GI50 (KM12): > 100 µM (inactive)
- GI50 (LOX IMVI): > 100 µM (inactive)
- GI50 (LXFL 529): > 100 µM (inactive)
- GI50 (M14): 79.8 µM (inactive)
- GI50 (M19-MEL): 76.2 µM (inactive)
- GI50 (MOLT-4): > 100 µM (inactive)
- GI50 (Malme-3M): > 100 µM (inactive)
- GI50 (NCI-H226): > 100 µM (inactive)
- GI50 (NCI-H23): > 100 µM (inactive)
- GI50 (NCI-H522): 36.1 µM (inactive)
- GI50 (OVCAR-3): 71.8 µM (inactive)
- GI50 (OVCAR-5): > 100 µM (inactive)
- GI50 (OVCAR-8): 72.4 µM (inactive)
- GI50 (RPMI-8226): > 100 µM (inactive)
- GI50 (RXF 393): 61 µM (inactive)
- GI50 (SF-268): 45.5 µM (inactive)
- GI50 (SF-295): 93.1 µM (inactive)
- GI50 (SF-539): 54.3 µM (inactive)
- GI50 (SK-MEL-28): > 100 µM (inactive)
- GI50 (SK-MEL-2): > 100 µM (inactive)
- GI50 (SK-MEL-5): 53.6 µM (inactive)
- GI50 (SK-OV-3): 41.7 µM (inactive)
- GI50 (SN12C): > 100 µM (inactive)
- GI50 (SNB-19): 64.1 µM (inactive)
- GI50 (SNB-75): 18.3 µM (inactive)
- GI50 (SNB-78): > 100 µM (inactive)
- GI50 (SR): > 100 µM (inactive)
- GI50 (SW-620): > 100 µM (inactive)
- GI50 (TK-10): > 100 µM (inactive)
- GI50 (U-251): > 100 µM (inactive)
- GI50 (UACC-257): > 100 µM (inactive)
- GI50 (UACC-62): 92.7 µM (inactive)
- GI50 (UO-31): > 100 µM (inactive)
- GI50 (XF498): 15.8 µM (inactive)

SMILES: COc1cc2c(cc1OC)[C@H]1C(COC(=O)c3ccccc3)CS/C(=N/c3ccccc3)N1CC2 (stereo not given in full)
- GI50 (786-0): > 100 µM (inactive)
- GI50 (A498): 48.9 µM (inactive)
- GI50 (A549): 82.6 µM (inactive)
- GI50 (ACHN): > 100 µM (inactive)
- GI50 (CAKI-1): > 100 µM (inactive)
- GI50 (CCRF-CEM): > 100 µM (inactive)
- GI50 (COLO 205): > 100 µM (inactive)
- GI50 (DLD-1): > 100 µM (inactive)
- GI50 (DMS-114): 17.1 µM (inactive)
- GI50 (DMS-273): 74 µM (inactive)
- GI50 (EKVX): > 100 µM (inactive)
- GI50 (HCC 2998): > 100 µM (inactive)
- GI50 (HCT-116): 5.68 µM (inactive)
- GI50 (HCT-15): > 100 µM
- GI50 (HL-60): 5.31 µM (inactive)
- GI50 (HOP-18): > 100 µM (inactive)
- GI50 (HOP-62): > 100 µM (inactive)
- GI50 (HOP-92): 8.17 µM (inactive)
- GI50 (HT-29): 8.24 µM (inactive)
- GI50 (IGROV-1): > 100 µM (inactive)
- GI50 (KM-20L2): 76 µM (inactive)
- GI50 (KM12): > 100 µM (inactive)
- GI50 (LOX IMVI): 92.9 µM (inactive)
- GI50 (LXFL 529): 24.4 µM (inactive)
- GI50 (M14): > 100 µM (inactive)
- GI50 (M19-MEL): > 100 µM (inactive)
- GI50 (MOLT-4): 2.91 µM (inactive)
- GI50 (Malme-3M): > 100 µM (inactive)
- GI50 (NCI-H226): 36.3 µM (inactive)
- GI50 (NCI-H23): 5.9 µM (inactive)
- GI50 (NCI-H460): 91.8 µM (inactive)
- GI50 (NCI-H522): 2.34 µM (inactive)
- GI50 (OVCAR-3): > 100 µM (inactive)
- GI50 (OVCAR-4): 5.15 µM (inactive)
- GI50 (OVCAR-5): 3.54 µM (inactive)
- GI50 (OVCAR-8): > 100 µM (inactive)
- GI50 (RPMI-8226): 4.33 µM (inactive)
- GI50 (RXF 393): 13.3 µM (inactive)
- GI50 (SF-268): 8.69 µM (inactive)
- GI50 (SF-295): > 100 µM (inactive)
- GI50 (SF-539): > 100 µM (inactive)
- GI50 (SK-MEL-28): > 100 µM (inactive)
- GI50 (SK-MEL-2): 3.21 µM (inactive)
- GI50 (SK-MEL-5): > 100 µM (inactive)
- GI50 (SK-OV-3): > 100 µM (inactive)
- GI50 (SN12C): > 100 µM (inactive)
- GI50 (SNB-19): 21 µM (inactive)
- GI50 (SNB-75): 27.7 µM (inactive)
- GI50 (SNB-78): 27 µM (inactive)
- GI50 (SR): 5.71 µM (inactive)
- GI50 (SW-620): > 100 µM (inactive)
- GI50 (TK-10): 81.1 µM (inactive)
- GI50 (U-251): 24.3 µM (inactive)
- GI50 (UACC-257): > 100 µM (inactive)
- GI50 (UACC-62): > 100 µM (inactive)
- GI50 (UO-31): 24.5 µM (inactive)
- GI50 (XF498): > 100 µM (inactive)
